How the values were obtained:
Assay type in all cases: cell-based
[1] = test system: Escherichia coli (10536 strain); assay: Antimicrobial efficacy, 15 seconds contact suspension test with plate count (Examples 1 and 3); conditions: for MBC (minimum biocidal concentration): Example 1 medium, lowest concentration giving complete kill after 15 seconds, upper boundary
Description: The efficacies of antimicrobial agents can be usefully compared by determining the Minimum Biocidal Concentration (MBC). The MBC is defined as the lowest absolute concentration of the particular active that provides complete kill (zero bacterial growth).
Antimicrobial efficacy is tested against a representative pathogenic bacterial organism, Gram negative Escherichia coli. Concentrations of actives are expressed in terms of the percentage weight/volume (% w/v) throughout Example 1.
An overnight culture of Escherichia coli (10536 strain) was prepared in 50 ml total volume of TSB broth, grown for ca. 18 hrs at 37° C. and shaken at 150 rpm. 1 ml of this overnight E. coli culture was transferred to 50 ml of fresh TSB broth and incubated at 37° C. at 150 rpm for ca. 4 hours. This culture was separated into equal volumes and centrifuged at 4000 rpm for 15 minutes, washed with sterile saline (0.85% NaCl), centrifuged once more and re-suspended in saline to give a final concentration of 0.8 OD620 equivalent to about 10^8 cells per milliliter for this particular organism. Here, OD620 indicates the absorbance of a sample in a cuvette of 1.0 cm path length at a wavelength of 620 nm. This bacterial stock was used for assaying against antimicrobial actives (in triplicate).
The following assay describes the testing of 8 materials using 6 dilutions across half of a 96-well micro titre plate (MTP). Using this approach it is possible to assay 16 actives (without replicates) with one full dilution plate, replicating this set up in two halves of the plate columns, 1-6 and 7-12.
1M solutions of the test actives were prepared in dimethylsulphoxide (DMSO).
Aliquots (270 μl) of the materials at 1.11 times the final concentration were dispensed into the wells of the MTP along one column (A1-H1). This MTP was labelled as the “Screening plate”.
In another MTP, labelled as the “Dilution plate”, 270 μl of D/E neutralising solution from DIFCO Composition was added to column 1. The composition of the neutralising solution was as follows: pancreatic digest of casein, 5.0 g/L; Yeast Extract, 2.5 g/L; Dextrose, 10 g/L, sodium thioglycollate, 1.0 g/L, sodium thiosulphate, 6.0 g/L; sodium bisulphite, 2.5 g/L; Polysorbate 80, 5.0 g/L; lecithin 7.0 g/L; bromocresol purple, 0.02 g/L with a pH in the range 7.6±0.2.
270 μl of tryptone diluent solution was added to all the remaining wells of the Dilution MTP (columns 2-6). […]

[2] = test system: Escherichia coli (E. coli—ATCC #10536); assay: High resolution MBC synergy assay, microtiter plate, phosphate buffer containing 35% dipropylene glycol (Example 2); conditions: for ΣFBC: for the Ca/Cb pair of the same table line; for MBC of component alone (MBCA, MBCB): complete kill in 15 seconds, 35% DPG phosphate buffer
Description: The materials were sourced in the same way as for Example 1. Synergy tests were conducted using standard microtiter plate assays with phosphate buffer containing 35% dipropylene glycol (DPG). […] The MBC plate was inoculated one column at a time with the test microorganism. An aliquot of the inoculated well was transferred at 15 seconds to a plate containing a neutralizing agent (D/E Neutralizing Broth), mixed and held for 5 minutes before being transferred to a growth plate containing trypticase soy broth (TSB). The TSB plate was incubated at 37° C. and read for the presence/absence of growth at 24 hours. […] This microorganism is representative of natural contaminants in many consumer and industrial applications.

[3] = test system: Escherichia coli (E. coli—ATCC #10536); assay: Automated assessment of efficacy in surfactant base, DeltaOD in D/E quench (Example 4); conditions: for MBC: in 2.85% sodium cocoyl glycinate + 1.85% sodium lauroamphoacetate solution at pH 10; for 15 second bactericidal efficacy in combination with thymol: in combination with thymol at concentrations lower than their MBC, same surfactant formulation, all 4 or 3 replicates, respectively
Description: In these examples, the efficacy of combinations of thymol and propen-2-yl-methyl-cyclohexanols of the invention were tested in a surfactant cleansing formulation comprising 2.85% sodium cocoyl glycinate and 1.85% sodium lauroamphoacetate. This corresponds to a 50% in use dilution with water of a typical neat formulation containing 5.7% cocoyl glycinate and 3.7% % sodium lauroamphoacetate during hand washing. Solutions were prepared such that the concentrations of the surfactant components and test actives were 1.1 times the final desired concentration in order to allow for dilution with the bacterial inoculum in the test. The solutions were manually adjusted to pH 10.0 by dropwise addition of sodium hydroxide solution, as measured with a pH meter at ambient temperature. Solutions of the thymol and/or propen-2-yl-methyl-cyclohexanols of the invention were prepared at a maximum of 24 hours before testing. The same thymol and propen-2-yl-methyl-cyclohexanols were tested as in Example 1.
The efficacy of the combinations of the present invention was determined against the same bacterium as in Example 1, Escherichia coli (E. coli—ATCC #10536), at a concentration of approximately 1×10^8 bacteria per mL.
Tests were conducted using standard microtiter plate assays using an automated liquid handling system. 270 μl of the surfactant test solution was pipetted into each well of the microtitre plate (Nunc F Gamma Irradiated 96F untreated microtitre plates of clear polystyrene) and 30 μl of the bacterial suspension was then added. After exactly 15 seconds of bacterial exposure, a 30 μl volume of bacterial cells was withdrawn and transferred to 270 μl of D/E quench solution. After 5 minutes in the D/E quench, the optical density (OD) was measured for each plate in turn at two specific wavelengths (450 nm and 590 nm). These provide a dual check of antimicrobial activity, as the OD450 reading is specific for the yellow colour of D/E quench when bacterial growth is observed, whereas OD590 is specific for the initial purple colour of the D/E quench which is retained if no bacterial growth is observed. […] Delta OD values were calculated by subtracting […] at time=16 hours. […] To identify antibacterially efficacious systems (those preventing appreciable bacterial growth after incubation), the following threshold changes in OD readings have been adopted: if (1). OD450 increases by less than 0.2 absorbance unit (AU) on incubation and (2). […] The number of replicate wells showing either bacterial growth or no growth is also readily assessed by eye by following the colour change. […]
In each case, binary mixtures were assessed in the weight to weight ratio of thymol to propen-2-yl-methyl-cyclohexanols of 1:2.5.

Row | Compound | MBC (minimum biocidal concentration) [1] [% w/v] | ΣFBC ([2]; Table 7) | MBC of component alone (MBCA, MBCB) ([2]; Table 7 series) [weight %] | MBC [3] [% w/v] | 15 second bactericidal efficacy in combination with thymol [3] | ΣFBC ([2]; Table 8) | MBC of component alone (MBCA, MBCB) ([2]; Table 8 series) [weight %] | MBC ([1]; Example 3, protocol of Example 1) [% w/v] | reduction of thymol concentration required for complete kill ([1]; combination with […] w/v 2-methyl-5-(propen-2-yl)-cyclohexanol versus thymol in isolation) [fold]
1 | C=C(C)C1CCC(C)C(O)C1 (stereo not drawn) [2-methyl-5-(propen-2-yl)-cyclohexanol] | 0.3 | 1.00 | 0.5 | >0.5 | complete kill |  |  |  | 
2 | C=C(C)[C@@H]1CC[C@@H](C)C[C@H]1O [5-methyl-2-(propen-2-yl)-cyclohexanol, (1R,2S,5R)-5-methyl-2-(propen-2-yl)-cyclohexanol] | 0.3 |  |  | >0.5 | complete kill | 1.00 | 0.5 |  | 
3 | C=C(C)[C@@H]1CC[C@@H](C)[C@@H](O)C1 [(1S,2R,5R)-2-methyl-5-(1-methylethenyl)-cyclohexanol] |  |  |  |  |  |  |  | 0.3 | 
4 | Cc1ccc(C(C)C)c(O)c1 [thymol, 2-isopropyl-5-methylphenol, reference compound] |  | 1.00 | 0.2 |  |  | 1.00 |  |  | 4
